From paper PMC11642486 (International Journal of Molecular Sciences, 2024)
Counter-ions that a name gives are not always drawn. Like-named read-outs stand apart in the source and are kept apart here.

How the values were obtained:
Nrf2 [1] = assay: Nrf2 nuclear translocation by immunofluorescence in microglia; type: cell-based, murine; details: for Nrf2 activation (nuclear translocation), result in words: 4 h, any tested concentration
Method: (§1) Primary hippocampal neurons were obtained from Wistar rats on embryonic day 18. Briefly, embryos were removed from the womb under sterile conditions and decapitated to dissect the brains. Hippocampi were isolated at 4 °C in Hank’s balanced salt solution (HBSS) without calcium and magnesium, supplemented with 10 mM HEPES buffered saline and 100 U/mL of penicillin-streptomycin. The hippocampi were mechanically disaggregated using fire-polished pipettes and plated for 2–4 h in neuronal plating medium composed of minimum essential medium (MEM) enriched with 0.6% D-glucose and 10% horse serum. Neuronal plating medium was replaced by neurobasal medium supplemented with 1X B-27 and 2 mM L-glutamine. Neurons were grown for 7 days prior to the experiments. For the microglial cells, we used the BV-2 immortalized murine cell line. Microglial cells were cultured in Dulbecco’s modified Eagle medium (DMEM) with 4.5 g/L D-glucose, 2 mM L-glutamine, 100 U/mL of penicillin-streptomycin, and 10% heat-inactivated fetal bovine serum. Cells were maintained at 37 °C in a humidified incubator with 5% CO2. All culture media were purchased from Thermo Fisher Scientific (Waltham, MA, USA).
For the immunofluorescence experiments, neurons and microglia were directly seeded on glass coverslips previously treated with 1 mg/mL of poly-L-lysine. […] After the drug treatments, the cells were fixed on ice with 4% paraformaldehyde for 25 min and then permeabilized and blocked using 0.1% Triton X-100 (10 min) and 5% BSA (30 min), respectively. Cells were then incubated overnight with the primary antibodies and 1% BSA at 4 °C. The primary antibodies anti-Nrf2 (ab1375550) and anti-NF-kB p65 (ab16502) (both from Abcam, Cambridge, United Kingdom) were used at 1:200. […] For each experimental condition, five random fields were captured and analyzed using ImageJ software (National Institutes of Health, Maryland, DC, USA). Activation of Nrf2 or NF-kB was defined as nuclear translocation, measured by the increase in the mean fluorescence intensity (MFI) in the nucleus. […]

neurons = assay: RNA-sequencing of drug-treated neurons; type: cell-based, rat
Nrf2 [2] = assay: Nrf2 nuclear translocation by immunofluorescence in neurons; type: cell-based, Wistar rats; details: for lowest concentration inducing nuclear translocation (activation) of Nrf2: significant vs vehicle
Method: as §1
For the immunofluorescence experiments, neurons and microglia were directly seeded on glass coverslips previously treated with 1 mg/mL of poly-L-lysine. […] After the drug treatments, the cells were fixed on ice with 4% paraformaldehyde for 25 min and then permeabilized and blocked using 0.1% Triton X-100 (10 min) and 5% BSA (30 min), respectively. Cells were then incubated overnight with the primary antibodies and 1% BSA at 4 °C. The primary antibodies anti-Nrf2 (ab1375550) and anti-NF-kB p65 (ab16502) (both from Abcam, Cambridge, United Kingdom) were used at 1:200. After washing with PBS, cells were incubated with the fluorophore-conjugated secondary antibody anti-Rabbit IgG Alexa Fluor 488 (Thermo Fisher Scientific) at 1:500 for 1 h at room temperature. Cells were counterstained with the TO-PRO fluorescent dye (Thermo Fisher Scientific) to visualize the cell nuclei. Images were captured using the confocal microscope Leica TCS SP5 (Leica Microsystems, Wetzlar, Germany). For each experimental condition, five random fields were captured and analyzed using ImageJ software (National Institutes of Health, Maryland, DC, USA). Activation of Nrf2 or NF-kB was defined as nuclear translocation, measured by the increase in the mean fluorescence intensity (MFI) in the nucleus. Each experiment was repeated three times.

[3] = system: Primary hippocampal neurons; assay: Cell viability assay (CellTiter-Glo) in neurons; type: cell-based, Wistar rats; details: for IC50: concentration diminishing cell viability by 50% vs vehicle
Method: Cell viability was measured at 24, 48, and 72 h of treatment with different drug concentration ranges. For each cellular type, we determined the half-maximal inhibitory concentration (IC50) of each drug.
as §1
Neurons and microglia were both seeded at a density of 10,000 cells/well in 96-well plates previously treated with 0.1 mg/mL of poly-L-lysine (Sigma-Aldrich). […] Cell viability was determined at 24, 48, and 72 h. The percentage of viable cells was quantified using the CellTiter-Glo® Luminescent Cell Viability Assay (Promega Biotech Ibérica, Madrid, Spain) following the instructions by the manufacturer. The […] of the cell culture media alone was subtracted as the background from all readings. Cell viability in the drug-treated cells was normalized to their respective vehicle controls. Experiments were repeated three times, each condition in triplicate.
Statistical analysis was performed using Prism 8 software (GraphPad, Boston, MA, USA). For the cell viability assays, a linear regression analysis was made with logarithmic transformation of the drug concentrations in the X-axis. The coefficient of determination (R²) was calculated as a measurement of the adjustment of the data to the regression model. The Mann–Whitney test was used to compare two different conditions. The Kruskal–Wallis test was used to compare the different concentrations of each drug against the vehicle or LPS. Statistical significance was established at p < 0.05.

[4] = system: nitric oxide (NO) production in microglia; assay: Nitric oxide production (Griess Reagent System) in LPS-activated microglia; type: cell-based, murine; details: for lowest concentration inhibiting the production of NO: LPS-activated microglia
Method: DMF and MMF (both from Sigma-Aldrich, Saint Louis, MO, USA) were prepared as stock solutions in dimethyl sulfoxide (DMSO); CBD (Cayman chemical, Ann Arbor, MI, USA) was prepared in ethanol (EtOH). Lipopolysaccharide (LPS) from Escherichia coli 026:B6 in an aqueous solution (Thermo Fisher Scientific) was used as proinflammatory stimuli in microglia at a final concentration of 600 ng/mL. For the LPS experiments, the concentration of fetal bovine serum in the microglia culture medium was reduced to 0.1% immediately before drug treatment. All of the compounds were titrated in their respective vehicle and diluted into the culture media for cell treatments. The final concentration of vehicle (DMSO, EtOH or H2O) was consistent for all treated cells (0.2%).
The concentration of nitrites was measured as an indirect indicator of nitric oxide (NO) production in microglia by using the colorimetric assay Griess Reagent System (Promega Biotech Ibérica, Madrid, Spain). Microglial cells were seeded in 96-well plates, previously treated with 0.1 mg/mL of poly-L-lysine, at a density of 50,000 cells/well. […] The concentration of NO was quantified at a wavelength of 520 nm in an absorbance reader plate. Experiments were repeated three times, each condition in triplicate.

[5] = 4 h, 30 µM DMF, 30 µM MMF, 6 µM CBD
[6] = 24 h, 30 µM DMF, 30 µM MMF, 6 µM CBD
[7] = Rattus norvegicus, Hippocampal neuron, 24 h, neurons, 24 h, read-out: IC50 (cell viability)
[8] = Rattus norvegicus, Hippocampal neuron, 48 h, neurons, 48 h, read-out: IC50 (cell viability)
[9] = Rattus norvegicus, Hippocampal neuron, 72 h, neurons, 72 h, read-out: IC50 (cell viability)
[10] = neurons, 24 h, read-out: IC50 (cell viability)
[11] = neurons, 72 h, read-out: IC50 (cell viability)

SMILES: C=C(C)[C@@H]1CCC(C)=C[C@H]1c1c(O)cc(CCCCC)cc1O [CBD, cannabidiol]
- Nrf2 activation (nuclear translocation), result in words (Nrf2 [1]): did not produce the activation of Nrf2
- number of differentially expressed genes (DEGs) vs vehicle (neurons; [5]): four
- Hmox1 expression vs vehicle (neurons; 24 h, 6 µM CBD): 4.9 log2FC
- number of DEGs with strong downregulation (fold change < −1) (neurons; 24 h, 6 µM CBD): eight
- number of DEGs with strong upregulation (fold change > 1) (neurons; 24 h, 6 µM CBD): nine
- number of downregulated DEGs vs vehicle (neurons; 24 h, 30 µM DMF, 6 µM CBD): 21
- number of upregulated DEGs vs vehicle (neurons; 24 h, 30 µM DMF, 6 µM CBD): 12
- number of differentially expressed genes (DEGs) vs vehicle (neurons; [6]): 33
- Nrf2 nuclear protein levels, fold increase vs vehicle (Nrf2 [2]; 4 h, 5 µM): 4 fold
- Nrf2 nuclear protein levels, fold increase vs vehicle (Nrf2 [2]; 4 h, 6 µM): 10 fold
- Nrf2 nuclear protein levels, fold increase vs vehicle (Nrf2 [2]; 4 h, 7 µM): 10 fold
- Nrf2 nuclear protein levels, fold increase vs vehicle (Nrf2 [2]; 4 h, 8 µM): 4 fold
- Nrf2 nuclear protein levels, fold increase vs vehicle (Nrf2 [2]; 4 h, 10 µM): 4 fold
- magnitude (peak) of Nrf2 activation, fold change of mean nuclear fluorescence intensity vs vehicle (Nrf2 [2]; 4 h treatment): 10 fold
- lowest concentration inducing nuclear translocation (activation) of Nrf2 (Nrf2 [2]; 4 h treatment): 5 µM
- IC50 ([3]; Rattus norvegicus, Hippocampal neuron, 24 h, read-out: IC50 (cell viability), neurons, 24 h): 15.1 µM
- IC50 ([3]; Rattus norvegicus, Hippocampal neuron, 48 h, read-out: IC50 (cell viability), neurons, 48 h): 13.6 µM
- IC50 ([3]; Rattus norvegicus, Hippocampal neuron, 72 h, read-out: IC50 (cell viability), neurons, 72 h): 13 µM
- decrease in cell viability ([3]; neurons, 10 µM): around 20%
- IC50 ([3]; read-out: IC50 (cell viability), neurons, 24 h): 15 µM
- IC50 ([3]; read-out: IC50 (cell viability), neurons, 72 h): 13 µM
- concentration of NO in the supernatant, in words ([4]; LPS + drug, 10 µM): almost undetectable
- concentration of NO in the supernatant ([4]; LPS + drug, starting from 6 µM, all timepoints, LPS alone around 40 µM at 48 and 72 h): below 10 µM
- lowest concentration inhibiting the production of NO [4]: 6 µM

SMILES: COC(=O)/C=C/C(=O)OC [DMF, Dimethyl fumarate]
- lowest concentration inducing nuclear translocation (activation) of Nrf2 (Nrf2 [1]; 4 h treatment, significant vs vehicle): 10 µM
- number of DEGs between 24 h and 4 h of treatment (across time) (neurons; 30 µM DMF): 1276
- Hmox1 expression vs vehicle (neurons; 4 h, 30 µM DMF): 3.9 log2FC
- number of downregulated DEGs vs vehicle (neurons; 4 h, 30 µM DMF): 169
- number of upregulated DEGs vs vehicle (neurons; 4 h, 30 µM DMF): 238
- number of differentially expressed genes (DEGs) vs vehicle (neurons; [5]): 407
- Nfe2l2 expression vs vehicle (neurons; 24 h, 30 µM DMF): 0.94 log2Fc
- number of downregulated DEGs vs vehicle (neurons; 24 h, 30 µM DMF, 6 µM CBD): 144
- number of upregulated DEGs vs vehicle (neurons; 24 h, 30 µM DMF, 6 µM CBD): 120
- Nqo1 expression vs vehicle (neurons; 24 h, 30 µM DMF, 30 µM MMF): 2.3 log2FC
- number of differentially expressed genes (DEGs) vs vehicle (neurons; [6]): 264
- lowest concentration inducing nuclear translocation (activation) of Nrf2 (Nrf2 [2]; 4 h treatment): 30 µM
- IC50 [3, 7]: 103 µM
- IC50 [3, 8]: 54.5 µM
- IC50 [3, 9]: 36.5 µM
- decrease in cell viability ([3]; neurons, 30 µM): around 20%
- IC50 [3, 10]: ~100 µM
- IC50 [3, 11]: 36 µM
- concentration of NO in the supernatant ([4]; LPS + drug, 48 and 72 h, all studied concentrations from 1 µM, LPS alone around 40 µM): around 20 µM
- lowest concentration inhibiting the production of NO [4]: ≤ 1 µM

SMILES: COC(=O)/C=C/C(=O)O [MMF, monomethyl fumarate]
- Nrf2 activation (nuclear translocation), result in words (Nrf2 [1]): did not observe Nrf2 activation
- number of differentially expressed genes (DEGs) vs vehicle (neurons; [5]): did not produce any significant transcriptomic changes
- Nqo1 expression vs vehicle (neurons; 24 h, 30 µM DMF, 30 µM MMF): 0.98 log2FC
- number of differentially expressed genes (DEGs) vs vehicle (neurons; [6]): three
- Gstp1 expression vs vehicle (neurons; 24 h, 30 µM MMF): 0.66 log2FC
- Nrf2 activation (nuclear translocation), result in words (Nrf2 [2]; 4 h, same concentrations as DMF (up to 30 µM)): did not observe the nuclear translocation of Nrf2
- IC50 [3, 7]: 67.8 µM
- IC50 [3, 8]: 42.5 µM
- IC50 [3, 9]: 55.6 µM
- IC50 [3, 10]: ~65 µM
- IC50 [3, 11]: 55 µM
- inhibition of NO production, in words ([4]; LPS + drug, 24 h): significant NO inhibition
- inhibition of NO production vs LPS-treated cells, in words ([4]; LPS + drug, same concentrations as DMF (from 1 µM)): halving the concentrations of NO
